# Experimental data from US20050074867A1, “Preservation of competent cells at ambient temperatures” (priority 2001, published 2005).
# Assays:
# [1] = test system: Escherichia coli ATCC strain MM294 cells; test: Electroporation of E. coli MM294 cells with pUC18 (survival and efficiency); assay type: cell-based; settings: cells loaded with 10% MAG, preserved (dried); average of three independent experiments
# Protocol: (§1) (2) Electroporation of fresh E. coli electrocompetent cells: Two aliquots of the concentrated cells (50 μl each) were transferred into pre-chilled Eppendorf tubes (1.5 ml) and 2 μl of pUC18 plasmid DNA (approx. 300 ng/μl) were added to the tubes. The [cells+DNA] mixtures were incubated on ice for 5 minutes and transferred into pre-chilled cuvettes for electroporation. The cells were electroporated by using a BTX T-100 electroporator, at 625 or at 800 volts (V) in BTX cuvettes (0.1 cm gap, P/N 610 Disposable Cuvettes) with a time constant “r” equal 5 msec. Under the pulse conditions described above, the cells were subjected to an electrical field “E” equal to 6.25 kV/cm or 8.0 kV/cm.
# (§2) Immediately after the pulse, the cells were transferred into small glass tubes (10×100 mm) with 0.5 ml of “outgrowth medium” (L-broth+20% sucrose+10 mM CaCl2). The electroporated bacteria were incubated at 37° C. with moderate shaking (150 rpm) for 60 minutes. When the 60 minutes period elapsed, the cells were diluted in “outgrowth medium” and duplicate samples were spread plated on L-agar plates with no antibiotic (to determine electroporation survival) and on L-agar plates with 50 μg/ml or 100 μg/ml of ampicillin (selective marker on pUC18 plasmid; to determine electroporation efficiency). The plates were incubated overnight at 37° C. and the colonies were counted the next day.
# (§3) (6) Electroporation of dried (preserved) E. coli cells: One or two 50 μl aliquots were removed from each rehydrated vial and transferred to pre-chilled Eppendorf tubes. The cells were mixed with pUC18 plasmid DNA (300 ng/μl) and electroporated using the conditions described previously for the electroporation of fresh electrocompetent cells.
# (§4) Electroporation survival was calculated as the number of viable cells recovered after electrical pulse per total number of electroportated cells. Electroporation efficiency was calculated as the number of transformants (cells which received pUC18 plasmid DNA) per number of cells recovered after electroporation (electroporation survival). When applicable, the electroporation efficiency was also expressed as number of transformants per 1 μg of pUC18 DNA (Cfu/μg).
# In this experiment, the cells were washed twice in ice-cold 20% sucrose and concentrated 100-fold after the second wash. Additionally, four samples were prepared (A, B, C, and D). […] Additional solution consisting of 22.5% 4:1 sucrose:MAG was prepared and evaluated for preservation of the cells (sample D). […] Electroporation survival and efficiencies in samples rehydrated with solutions containing different amounts of sucrose were determined. […] Electroporation survival and efficiencies were determined and compared.
# [2] = test system: commercial electrocompetent E. coli cells; test: Electroporation of preserved commercial electrocompetent E. coli cells; assay type: cell-based; settings: loaded with 10% MAG, transformed immediately after drying
# Protocol: as §1, §2, §3, §4
# Preserved commercial cells (vitrified and frozen) were electroporated as described previously. Electroporation survival and electroporation efficiency in the preserved cells were determined and compared to the same parameters in the fresh cells (Table 5).
compound,measurement,setting,value
"COC1OC(CO)C(O)C(O)C1O (stereo not drawn) [MAG, a-methyl-glucoside]",Electroporation Efficiency 10^−3%,[1],5.6 10^−3%
same,Electroporation Efficiency Cfu/ml,[1],1.7 × 10^5 Cfu/ml
same,Electroporation Survival (%),[1],28.6%
same,Electroporation Survival Cfu/ml,[1],3.0 × 10^9 Cfu/ml
same,Electroporation Efficiency 10^−3%,[2],6.1 +/− 5.5 10^−3%
same,Electroporation Efficiency (Cfu/µg DNA),[2],1.6 × 10^4 +/− 1.8 × 10^2 Cfu/µg DNA
same,Electroporation Efficiency Cfu/ml,[2],1.9 × 10^5 +/− 1.7 × 10^5 Cfu/ml
same,Electroporation Survival (%),[2],35.7 +/− 4.7%
same,Electroporation Survival Cfu/ml,[2]; cell density 1/10 of fresh concentrates,3.2 × 10^9 +/− 4.2 × 10^8 Cfu/ml
